For one compound, TGI results are on record in paper PMC6838110 (Nature Communications, 2019).

For this test, the system named is HBCx-17 TNBC PDX. As to the kind of experiment: PDX efficacy study. The format is in vivo, mice. How it is done: Immunocompromised SCID (C.B-17/IcrHan®Hsd-Prkdc^scid) or Hsd:Athymic Nude-Foxn1^nu female mice (Envigo) were used for tumour implantation. […] When dosed twice daily, the time between the morning and evening doses was 8 h. Targeted irradiation of 2 Gy was delivered over 2 min daily over the first 5 days of treatment. Liposomal doxorubicin (Doxoves) was diluted in physiological saline and intravenously dosed at 2.5 or 5 mg kg^−1 once per week. Olaparib was formulated in 10% DMSO/30% Kleptose and orally dosed at 100 mg kg^−1 once daily. […] Statistical significance was evaluated using a one-tailed t-test. All in vivo studies complied with all relevant ethical regulations for animal testing and research, followed AstraZeneca’s global bioethics policy and received ethical approval from the AstraZeneca ethical committee. HBCx-17 PDX study was carried out at XenTech, France in accordance with French regulatory legislation concerning the protection of laboratory animals. CTG-703, CTG-0828 and CTG-0149 PDX studies were carried out at Champions Oncology, Inc., USA in accordance to the guidelines of the Institutional Animal Care and Use Committee (IACUC) of Champions Oncology and the USA regulatory legislation. CDX and OV2022 PDX studies were conducted in the UK in accordance with UK Home Office legislation, the Animal Scientific Procedures Act 1986 and the Home Office project licences 70/8839, 70/8894 and P0EC1FFDF. […]
SCID mice were surgically implanted subcutaneously with tumour fragments from donor mice. Tumours were measured (length x width) by bilateral Vernier calliper measurements and tumour volume calculated using Mousetrap software. Mice were randomized into […]
treatment groups when mean tumour volume reached ~0.2 cm 3.

Consider `Cc1cc2ncnn2cc1Nc1ncc2c(n1)n(C1CCOCC1)c(=O)n2C` [AZD7648], for which the TGI (AZD7648 75 mg kg−1 bid single agent (olaparib study)) came out at 65% and the TGI (AZD7648 single agent (doxorubicin study)) is on record as 25%.
